# Measured values published in PubChem BioAssay (NCI).
#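 1) Cells in 96-well plates. 2) Compound, 48 h, 5 concentrations. 3) Linear interpolation between surrounding doses. 4) Unreached endpoint = highest concentration. GI50: concentration for 50% inhibition of growth. TGI: concentration producing complete growth inhibition.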
# How the values were obtained:
# Assay in all cases: inhibition of tumour cell growth, NCI panel, 48 h
# HCT-15 colon = tested on: HCT-15 colon
# MCF7 breast = tested on: MCF7 breast
# NCI-H226 lung = tested on: NCI-H226 lung
# OVCAR-3 ovarian = tested on: OVCAR-3 ovarian
# RPMI-8226 leukemia = tested on: RPMI-8226 leukemia
# SF-539 CNS = tested on: SF-539 CNS
# SK-MEL-2 melanoma = tested on: SK-MEL-2 melanoma
# HL-60(TB) leukemia = tested on: HL-60(TB) leukemia
# MDA-MB-435 = tested on: MDA-MB-435
# RXF 393 renal = tested on: RXF 393 renal
Compound,TGI (HCT-15 colon),TGI (MCF7 breast),TGI (NCI-H226 lung),GI50 (OVCAR-3 ovarian),TGI (OVCAR-3 ovarian),TGI (RPMI-8226 leukemia),TGI (SF-539 CNS),TGI (SK-MEL-2 melanoma),TGI (HL-60(TB) leukemia),TGI (MDA-MB-435),TGI (RXF 393 renal)
Cc1cnc2[nH]c(-c3ccc4ccccc4c3)cc(=O)c2c1,21.7 µM,8.68 µM,> 100 µM,0.352 µM,10.6 µM,> 100 µM,9.07 µM,> 100 µM,–,–,–
Cc1ccc(Nc2nc3c(=O)n(C)c(=O)n(C)c3nc2Nc2ccc(C)cc2)cc1,11.8 µM,–,> 100 µM,–,–,> 100 µM,26.7 µM,33.5 µM,> 100 µM,25.1 µM,23.2 µM
NC(=O)NC12CC3CC(CC(F)(C3)C1)C2,–,–,–,–,> 100 µM,> 100 µM,> 100 µM,> 100 µM,> 100 µM,–,> 100 µM
N#Cc1c(-c2ccccc2)c(CN2CCCCC2)c(=O)n2c1[nH]c1ccccc12,> 100 µM,> 100 µM,> 100 µM,–,58.3 µM,–,> 100 µM,> 100 µM,–,> 100 µM,> 100 µM
O=c1oc2c(Cl)cc(Cl)cc2cc1C1=CSC2=NCCN12,> 100 µM,88.9 µM,–,–,92.9 µM,> 100 µM,> 100 µM,> 100 µM,> 100 µM,> 100 µM,> 100 µM
CC(Oc1ccc(OCC2CCCCC2)cc1)C(=O)NCc1ccco1 (stereo not drawn),> 100 µM,–,94 µM,–,> 100 µM,–,88.1 µM,59.3 µM,> 100 µM,–,71.4 µM
Cc1nc2sccn2c1/C=C1/C(=O)Nc2cccc(Cl)c21,> 100 µM,> 100 µM,–,–,> 100 µM,> 100 µM,> 100 µM,> 100 µM,> 100 µM,39.3 µM,> 100 µM
CC(=O)OC(C)(C)CCC(=O)[C@](C)(O)[C@H]1[C@H](O)C[C@@]2(C)[C@@H]3CCc4c(cc(OC5OC(CO)C(O)C(O)C5O)c(O)c4C)C3(C)C(=O)C[C@]12C (stereo partly drawn),> 100 µM,> 100 µM,> 100 µM,–,> 100 µM,–,> 100 µM,> 100 µM,–,> 100 µM,> 100 µM
O=C1CC(NCc2ccccc2)c2c(Cl)sc(Cl)c21 (stereo not drawn),46.9 µM,50.3 µM,> 63.5 µM,–,47.3 µM,6.82 µM,57.5 µM,51.5 µM,41.6 µM,85.2 µM,–
O=C(c1cc2c(c3ccccc13)NC1(CCCCC1)N=C2C(F)(F)F)C(F)(F)F,16.7 µM,12.2 µM,11 µM,–,7.81 µM,–,5.59 µM,5.87 µM,9.89 µM,12.5 µM,12.7 µM
Cn1cc(-c2csc(-c3cn(C)c4ccccc34)n2)c2ccccc21,> 100 µM,> 100 µM,> 100 µM,–,64 µM,85 µM,–,> 100 µM,> 100 µM,> 100 µM,54.4 µM
CCOC(=O)/C=C(/C)Nc1nc2c(c(C(=O)OC)c1C#N)CCCC2,> 100 µM,> 100 µM,> 100 µM,–,–,> 100 µM,–,> 100 µM,> 100 µM,> 100 µM,> 100 µM
